Read-outs that look alike come from different tables or passages of the source. One block for each compound: values may come before it.
Assays:
[1] = system: PD1 signal sequence plus 10 amino acids fused to Gaussia Luciferase (PD1-ss+10aa/Gaussia Luciferase); experiment: Dox Induced PD1-ss-Gluc Assay; format: cell-based; details: 24 hr, read-out: 24 hr Dox Inducible PD1ssGluc 293FRT/TO: Mean IC50
Outline: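 Compound dilutions in DMSO/media containing doxycycline were applied to a stable, inducible 293 T-REx line carrying the luciferase fusion, then incubated at 37 °C, 5% CO2. Where stereochemistry is not drawn, values relate to isomer mixtures.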

[2] = system: multiple myeloma cell line NCl-H929; experiment: H929 Cell Viability Assay; format: cell-based, human; details: Homo sapiens, NCI-H929, 48 h
Outline: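 Viability was determined by CellTiter-Glo luminescence after a 48 h, 37 °C exposure of NCI-H929 cells to serial compound dilutions in medium containing 10% FBS. Where stereochemistry is not shown, values refer to a mix of stereoisomers.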

[3] = In Vitro Microsome Stability Assay (human); format: in vitro ADME
Outline: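 Species liver microsomes in potassium phosphate buffer were preincubated at 37 °C for 3–5 min with test compound (added from 0.25 mM DMSO stock), then started with NADPH. Samples at 0 and 30 min were quenched with acetonitrile containing internal standard and analysed by LC-MS/MS; % remaining at 30 min used analyte/IS AUC ratios relative to t=0.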

[4] = system: target signal sequences plus 10 amino acids fused to Gaussia Luciferase; experiment: Transiently Expressed Dox Induced Signal Sequence-Gluc Assay; format: cell-based; details: read-out: Signal Sequence-Gluc potency
Procedure: FIp-In 293 T-REx™ cells were transfected with 500 ng pcDNA™5/FRT/TO plasmids inserted with cDNA encoding Gaussia Luciferase fused to the 3′ end of cDNA encoding target signal sequences plus 10 amino acids. Transfected cells were incubated overnight then cells were trypsinized and plated in 384-well tissue culture plates. The next day, compound dilutions in DMSO/media containing doxycycline were added to the wells and incubated at 37° C., 5% CO2.

IL-23 = experiment: Human PBMC Cytokine Assay: IL-23; format: cell-based; details: LPS stimulation, 24 hours
Procedure: Human PBMC were freshly isolated from whole blood collections of 3 normal donors utilizing density gradient centrifugation followed by red blood cell lysis. PBMC from each donor were assayed separately. Cells were suspended in RPMI 1640 media supplemented with 5% fetal bovine serum, 2 mM L-glutamine, 10 mM HEPES, and 1× penicillin/streptomycin. PBMC were seeded at 200,000 cells/well in 96-well round-bottom plates either without stimulation or with stimulation by lipopolysaccharide (LPS, 1 μg/mL) or antibodies against human CD3 (plate-bound, 2 μg/mL) and human CD28 (soluble, 2 μg/mL). Serial dilutions of compound in DMSO/media were simultaneously added and PBMC were incubated at 37° C., 5% CO2 for 24 hours. After 24 hours, plates were centrifuged and half of the supernatant volume removed for cytokine analysis by electrochemiluminescent immunoassay (U-PLEX® Biomarker Multiplex, Meso Scale Discovery). For viability analysis, CellTiter-Glo® (Promega) was added to the remaining material in each well and quantified via luminescent plate reader.

[5] = Target ADAM10 signal peptide +10 amino acids
[6] = Target B7H3 signal peptide +10 amino acids
[7] = Target CD73 signal peptide +10 amino acids
[8] = Target CD96 signal peptide +10 amino acids
[9] = Target CTLA-4 signal peptide +10 amino acids
[10] = Target EGFR signal peptide +10 amino acids
[11] = Target GP130 signal peptide +10 amino acids
[12] = Target HER3 signal peptide +10 amino acids
[13] = Target IFN-a1 signal peptide +10 amino acids
[14] = Target IFN-a2 signal peptide +10 amino acids
[15] = Target IFN-a4 signal peptide +10 amino acids
[16] = Target IFN-b signal peptide +10 amino acids
[17] = Target IFNAR1 signal peptide +10 amino acids
[18] = Target IFNAR2 signal peptide +10 amino acids
[19] = Target IL-1R1 signal peptide +10 amino acids
[20] = Target IL-1R2 signal peptide +10 amino acids
[21] = Target IL-1Ra (isoform 1) signal peptide +10 amino acids
[22] = Target IL-2Ra (CD25) signal peptide +10 amino acids
[23] = Target IL-6R signal peptide +10 amino acids
[24] = Target IL-6 signal peptide +10 amino acids
[25] = Target IL-7R signal peptide +10 amino acids
[26] = Target IL-12b (p40) signal peptide +10 amino acids
[27] = Target IL-17Ra signal peptide +10 amino acids
[28] = Target IL-17a signal peptide +10 amino acids
[29] = Target IL-23R signal peptide +10 amino acids
[30] = Target IL-23a signal peptide +10 amino acids
[31] = Target LAG3 signal peptide +10 amino acids
[32] = Target PD-L1 signal peptide +10 amino acids
[33] = Target PDGFRa signal peptide +10 amino acids
[34] = Target TACE (ADAM17) signal peptide +10 amino acids
[35] = Target TIGIT signal peptide +10 amino acids
[36] = Target TIM3 signal peptide +10 amino acids
[37] = Target TNFR1 signal peptide +10 amino acids
[38] = Target TNFR2 signal peptide +10 amino acids
[39] = Target VEGF signal peptide +10 amino acids
[40] = Target VGFR2 signal peptide +10 amino acids
[41] = Target VISTA signal peptide +10 amino acids
[42] = human liver microsomes, 30 min w/ NADPH

IC50 ([1]; 293FRT/TO): 19.1 nM
EC50 ([2]; H929, read-out: 48 hr H929 Viability Celltiter-Glo: Mean EC50): 224 nM
Liver Microsome Stability-% Left after 30 min w/ NADPH (%) Human ([3]; human, 30 min, NADPH): 39.7%
IC50 [4, 5]: 231 nM
IC50 [4, 6]: 27 nM
IC50 [4, 7]: 58 nM
IC50 [4, 8]: 12 nM
IC50 [4, 9]: 259 nM
IC50 [4, 10]: 60 nM
IC50 [4, 11]: 201 nM
IC50 [4, 12]: 89 nM
IC50 [4, 13]: 128 nM
IC50 [4, 14]: 51 nM
IC50 [4, 15]: 221 nM
IC50 [4, 16]: 818 nM
IC50 [4, 17]: 14 nM
IC50 [4, 18]: 133 nM
IC50 [4, 19]: 374 nM
IC50 [4, 20]: 23 nM
IC50 [4, 21]: 111 nM
IC50 [4, 22]: 159 nM
IC50 [4, 23]: 78 nM
IC50 [4, 24]: 66 nM
IC50 [4, 25]: 58 nM
IC50 [4, 26]: 155 nM
IC50 [4, 27]: 424 nM
IC50 [4, 28]: 447 nM
IC50 [4, 29]: 111 nM
IC50 [4, 30]: 567 nM
IC50 [4, 31]: 75 nM
IC50 [4, 32]: 56 nM
IC50 [4, 33]: 90 nM
IC50 [4, 34]: 66 nM
IC50 [4, 35]: 162 nM
IC50 [4, 36]: 282 nM
IC50 [4, 37]: 307 nM
IC50 [4, 38]: 564 nM
IC50 [4, 39]: 111 nM
IC50 [4, 40]: 684 nM
IC50 [4, 41]: 211 nM
IC50 (IL-23): 200 nM
Structure (SMILES): C[C@H]1CN(S(=O)(=O)c2ccc(N(C)C)cc2)CCCN(CC2CCCCC2)CCCN(S(=O)(=O)N2CCc3cc(Cl)ccc3C2)C1 [A87]

IC50 ([1]; Dox inducible, 293FRT/TO cells): 8.3 nM
EC50 ([2]; H929, Celltiter-Glo): 282 nM
Liver Microsome Stability-% Left after 30 min w/ NADPH (%) Human [3, 42]: 48.8%
IC50 [4, 5]: 127 nM
IC50 [4, 6]: 9 nM
IC50 [4, 7]: 44 nM
IC50 [4, 8]: 7 nM
IC50 [4, 9]: 112 nM
IC50 [4, 10]: 47 nM
IC50 [4, 11]: 161 nM
IC50 [4, 12]: 57 nM
IC50 [4, 13]: 57 nM
IC50 [4, 14]: 44 nM
IC50 [4, 15]: 89 nM
IC50 [4, 16]: 288 nM
IC50 [4, 17]: 6 nM
IC50 [4, 18]: 42 nM
IC50 [4, 19]: 282 nM
IC50 [4, 20]: 17 nM
IC50 [4, 21]: 47 nM
IC50 [4, 22]: 55 nM
IC50 [4, 23]: 48 nM
IC50 [4, 24]: 38 nM
IC50 [4, 25]: 16 nM
IC50 [4, 26]: 74 nM
IC50 [4, 27]: 176 nM
IC50 [4, 28]: 216 nM
IC50 [4, 29]: 47 nM
IC50 [4, 30]: 223 nM
IC50 [4, 31]: 48 nM
IC50 [4, 32]: 19 nM
IC50 [4, 33]: 37 nM
IC50 [4, 34]: 40 nM
IC50 [4, 35]: 79 nM
IC50 [4, 36]: 132 nM
IC50 [4, 37]: 152 nM
IC50 [4, 38]: 186 nM
IC50 [4, 39]: 51 nM
IC50 [4, 40]: 213 nM
IC50 [4, 41]: 150 nM
IC50 (IL-23): 79 nM
Structure (SMILES): COc1cc(F)ccc1N1CCN(S(=O)(=O)N2CCCN(CC3CCCCC3)CCCN(S(=O)(=O)c3ccc(N(C)C)cc3)C[C@H](C)C2)CC1 [A137]

IC50 ([1]; Dox inducible, 293FRT/TO cells): 153 nM
EC50 ([2]; H929, Celltiter-Glo): 2710 nM
Liver Microsome Stability-% Left after 30 min w/ NADPH (%) Human [3, 42]: 4.28%
IC50 [4, 5]: 849 nM
IC50 [4, 6]: 201 nM
IC50 [4, 7]: 375 nM
IC50 [4, 8]: 107 nM
IC50 [4, 9]: 1140 nM
IC50 [4, 10]: 412 nM
IC50 [4, 11]: 969 nM
IC50 [4, 12]: 522 nM
IC50 [4, 13]: 820 nM
IC50 [4, 14]: 404 nM
IC50 [4, 15]: 1130 nM
IC50 [4, 16]: 4300 nM
IC50 [4, 17]: 145 nM
IC50 [4, 18]: 778 nM
IC50 [4, 19]: 1470 nM
IC50 [4, 20]: 168 nM
IC50 [4, 21]: 666 nM
IC50 [4, 22]: 876 nM
IC50 [4, 23]: 445 nM
IC50 [4, 24]: 437 nM
IC50 [4, 25]: 392 nM
IC50 [4, 26]: 913 nM
IC50 [4, 27]: 1860 nM
IC50 [4, 28]: 1820 nM
IC50 [4, 29]: 666 nM
IC50 [4, 30]: 1920 nM
IC50 [4, 31]: 464 nM
IC50 [4, 32]: 366 nM
IC50 [4, 33]: 565 nM
IC50 [4, 34]: 391 nM
IC50 [4, 35]: 737 nM
IC50 [4, 36]: 1350 nM
IC50 [4, 37]: 1620 nM
IC50 [4, 38]: 2110 nM
IC50 [4, 39]: 645 nM
IC50 [4, 40]: 2590 nM
IC50 [4, 41]: 911 nM
Structure (SMILES): C[C@H]1CN(S(=O)(=O)c2ccc(N(C)C)cc2)CCCN(CC2CCCCC2)CCCN(S(=O)(=O)N2CCc3c(C#N)cccc3C2)C1 [A151, 2-{[(3S)-9-(cyclohexylmethyl)-5-[4-(dimethylamino)benzenesulfonyl]-3-methyl-1,5,9-triazacyclododecan-1-yl]sulfonyl}-1,2,3,4-tetrahydroisoquinoline-5-carbonitrile]

IC50 ([1]; Dox inducible, 293FRT/TO cells): 4.95 nM
EC50 ([2]; H929, Celltiter-Glo): 180 nM
Liver Microsome Stability-% Left after 30 min w/ NADPH (%) Human [3, 42]: 13.7%
IC50 (IL-23): 54 nM
Structure (SMILES): COc1cc(F)ccc1N1CCN(S(=O)(=O)N2CCCN(CC3CCCCC3)CCCN(S(=O)(=O)c3ccc(N(C)C)cc3)C[C@H](C)C2)C[C@H]1C [A177, 4-{[(3S)-9-(cyclohexylmethyl)-5-{[(3 R)-4-(4-fluoro-2-methoxyphenyl)-3-methylpiperazin-1-yl]sulfonyl}-3-methyl-1,5,9-triazacyclododecan-1-yl]sulfonyl}-N,N-dimethylaniline]
